Series [1] in a line: TLC analysis of stability after purification. The class given is physicochemical. Particulars: 24 hours after purification, in sodium ascorbate aqueous solution (final concentration 1%). The protocol:
The crude product solution (1 μL) was analyzed by thin-layer chromatography (TLC). The sample was spotted on a thin-layer plate (silica gel 60F254), and a mixed solvent of acetonitrile/water (2/1) was used as a developing solvent. The thin-layer plate was exposed to an imaging plate (BAS IP MS 2025E, GE Healthcare) for about 15 min, and then analyzed by a bioimage analyzer (Tyhoon™ FLA-7000, Cytiva). The results are shown in FIG. 2. ^211At-AAMT-OMe in the crude product solution was detected at Rf 0.80, and the radiochemical yield (RCY) was 81.3%.
(§1) The crude product solution was injected into an HLB column (Oasis, WAT-186005125) equilibrated with sterile distilled water (1 mL) to capture the target product in the cartridge, and sterile distilled water was passed through the cartridge to elute impurities. Next, 30% ethanol solution (500 μL) was passed through the cartridge to elute the target product into sodium ascorbate aqueous solution (500 μL, final concentration 1%), thus obtaining the purified product. The radiochemical yield and radiochemical purity of the purified product were 81% and 98%, respectively.
Before purification, immediately after production, 3 hours after production, and 24 hours after production, ^211At-AAMT-OMe was analyzed by thin-layer chromatography (TLC) in the same manner as described above.
as §1, with “product. This purified product was analyzed by thin-layer chromatography (TLC) in the same manner as described above.” for “product.”, “79.6%” for “81%”, “99.9%,” for “98%,”
24 hours after production, (R)-^211At-AAMT-OMe was analyzed by thin-layer chromatography (TLC) in the same manner as described above.
as §1, with “product. This purified product was analyzed by thin-layer chromatography (TLC) in the same manner as described above.” for “product.”, “75.9%” for “81%”, “99.27%,” for “98%,”
24 hours after production, ^211At-AAMT-OEt was analyzed by thin-layer chromatography (TLC) in the same manner as described above.
The crude product solution was injected into an HLB column (Oasis, WAT-186005125) equilibrated with sterile distilled water (1 mL) to capture the target product in the cartridge, and sterile distilled water was passed through the cartridge to elute impurities. […] This purified product was analyzed by thin-layer chromatography (TLC) in the same manner as described above. […]
24 hours after production, ^211At-AAMT-OPr was analyzed by thin-layer chromatography (TLC) in the same manner as described above. […]

Another series has as its target HEK293-hLAT1 (Homo sapiens, UniProt Q01650). The series can be described thus: Cellular uptake test (Using HEK293). Particulars: inhibitor added 15 minutes before; BCH 20 mM or unlabeled AMT 1 μg/mL. The class given is cell-based. How it is done: • Cells to be Used: HEK293-Mock, HEK293-hLAT1, HEK293-hLAT2 (HEK293: Human Embryonic Kidney cells 293) • Culture medium to be used: E-MEM (containing 10% FBS, 1% P/S, 1% NEAA)
(§2) Two days before a test day, a cell suspension was prepared in such a manner that the concentration of predetermined cells was 1×10^5 cells/mL. The cell suspension was seeded in a 24-well multiculture plate at a volume of 0.5 mL per well. On the day of the test, cultures were confirmed to be subconfluent (which refers to a state where 70-80% of the well is covered in density). The cells were washed twice with warmed PBS(-) Buffer (166-23555, FUJIFILM Wako Pure Chemical Corporation), the culture medium was replaced with HBSS(-) Buffer (085-09355, FUJIFILM Wako Pure Chemical Corporation), and the plate was left to stand in an incubator (MINIcell-35, WakenBtech Co., Ltd) until an RI addition test.
(§3) ^211At-AAMT-OMe or ^211At-AAMT was added to the prepared cells at 10 μL/well. BCH (LAT1 inhibitor, 20 mM) or unlabeled AMT (α-methyl tyrosine, 1 μg/mL) was previously (15 minutes before) added ([…]). The cells were cultured (CO2 5%, 37 °C), and after 30 minutes, the liquid was removed by suction using an aspirator. The cells were washed twice with PBS(-). The cells were lysed by adding 0.1N NaOH to obtain a lysate, and the radioactivity of the lysate was measured using a γ counter. After the radioactivity measurement, the lysate was loaded into a 96-well plate at a volume of 10 μL per well, the protein amount was measured by the BCA method, and the number of cells was corrected based on the protein amount. Absorbance was measured by MultiScanFC (Thermo Fisher). The uptake level of ^211At-AAMT-OMe or ^211At-AAMT into the cells (number of radioactivity counts/protein amount) was calculated.

Series [2] concerns CDDP-resistant A549 (A549 CDDP-r). The series can be described thus: Cell viability of CDDP-resistant A549 (A549 CDDP-r) with CDDP. Particulars: CDDP 100 μg/mL. The class given is cell-based, human. How it is done:
Cisplatin (CDDP) was added to a human lung cancer cell line, A549 at an initial concentration of 1 μg/mL. After 3 days, dead cells were removed, and CDDP was again added. Cells that grew like A549 even in the presence of CDDP were isolated and maintained for 3 months while gradually increasing the concentration of CDDP in a culture medium.

For another series, the system named is PANC1 tumor. The series can be described thus: Measurement of accumulated amounts of 211At-labeled compounds in PANC1 tumor-bearing mice. Type of series: in vivo, human (PANC1) in Balb/c-nu/nu mice. Particulars: for accumulation in the tumor sites compared to 211At-AAMT: 10 minutes and 1 hour after administration, tail vein; for retention at tumor sites: compared to 211At-AAMT. How it is done:
(§4) Radiation doses before and after the administration were measured, and a difference between them was defined as an injected dose (ID). Ten minutes and one hour after administration, the mice were anesthetized by isoflurane inhalation, the tumors were isolated by autopsy in chronological order, and their radiation doses and weights were measured using a gamma counter (2480 Wizard^2, PerkinElmer) and a semimicro scale (Shimadzu Corporation, readability 10 μg), respectively. For comparison between accumulated amounts, accumulated amounts per unit amount (% ID/g) were calculated.
(§5) In Table 1, the amounts of the ^211At-labeled compounds accumulated in tumors of the PANC1 tumor-bearing models (% ID/g) are shown. It should be noted that in Table 1, “OMe” is ^211At-AAMT-OMe, “OEt” is ^211At-AAMT-OEt, “OPr” is ^211At-AAMT-OPr, and “OH” is ^211At-AAMT.

Test in series [3]: as above
To be noted: tumor, iv, 0.1 MBq/animal, 0.1 MBq/0.2 mL per mouse, tail vein, read-out: tumor accumulation; for tissue uptake at 10 min: 10 minutes after administration; for tissue uptake at 1 h: 1 hour after administration. Type of series: in vivo, human (PANC1) in Balb/c-nu/nu mice. The protocol: as §4, §5

The subject of series [4] is human pancreatic cancer cell line (PANC1). The class given is in vivo, human (PANC1) in Balb/c-nu/nu mice. Particulars: 1 MBq/0.2 mL per mouse, tail vein. An excerpt:
The experiment was terminated 21 days after administration.

In the next series the test system is PANC1. The series can be described thus: Cellular uptake test (Using PANC1). Type of series: cell-based, human. To be noted: for uptake speed: PANC1 cells, uptake level immediately after addition. How it is done:
• Cells to be used: PANC1 • Culture medium to be used: D-MEM (containing 10% FBS, 1% P/S)
as §2, with “cells/mL in the same manner as in Test Example 1.” for “cells/mL.”
as §3, with “^211At-AAMT-OMe, ^211At-AAMT-OEt, ^211At-AAMT-OPr, or” for “^211At-AAMT-OMe or”, “of ^211At-AAMT-OMe, ^211At-AAMT-OEt, ^211-At-AAMT-OPr,” for “of ^211At-AAMT-OMe”

Setting [5] is: up to 21 days after administration.

Sequence of HEK293-hLAT1 (Q01650 whole entry): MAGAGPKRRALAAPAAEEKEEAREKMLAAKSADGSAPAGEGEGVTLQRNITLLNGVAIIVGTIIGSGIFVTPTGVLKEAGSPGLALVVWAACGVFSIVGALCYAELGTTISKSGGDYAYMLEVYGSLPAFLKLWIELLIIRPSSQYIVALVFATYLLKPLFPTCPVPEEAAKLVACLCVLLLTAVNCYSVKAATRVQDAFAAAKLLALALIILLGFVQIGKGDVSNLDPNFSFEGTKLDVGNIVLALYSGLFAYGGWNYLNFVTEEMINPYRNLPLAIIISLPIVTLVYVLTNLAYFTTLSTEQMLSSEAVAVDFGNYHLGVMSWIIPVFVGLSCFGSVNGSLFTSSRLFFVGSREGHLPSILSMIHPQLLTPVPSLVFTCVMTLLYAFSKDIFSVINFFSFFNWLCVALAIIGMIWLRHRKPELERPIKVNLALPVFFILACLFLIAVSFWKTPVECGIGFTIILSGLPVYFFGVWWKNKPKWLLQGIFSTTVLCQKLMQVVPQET
Sequence of HEK293-hLAT1 (P08195 102-630 partner): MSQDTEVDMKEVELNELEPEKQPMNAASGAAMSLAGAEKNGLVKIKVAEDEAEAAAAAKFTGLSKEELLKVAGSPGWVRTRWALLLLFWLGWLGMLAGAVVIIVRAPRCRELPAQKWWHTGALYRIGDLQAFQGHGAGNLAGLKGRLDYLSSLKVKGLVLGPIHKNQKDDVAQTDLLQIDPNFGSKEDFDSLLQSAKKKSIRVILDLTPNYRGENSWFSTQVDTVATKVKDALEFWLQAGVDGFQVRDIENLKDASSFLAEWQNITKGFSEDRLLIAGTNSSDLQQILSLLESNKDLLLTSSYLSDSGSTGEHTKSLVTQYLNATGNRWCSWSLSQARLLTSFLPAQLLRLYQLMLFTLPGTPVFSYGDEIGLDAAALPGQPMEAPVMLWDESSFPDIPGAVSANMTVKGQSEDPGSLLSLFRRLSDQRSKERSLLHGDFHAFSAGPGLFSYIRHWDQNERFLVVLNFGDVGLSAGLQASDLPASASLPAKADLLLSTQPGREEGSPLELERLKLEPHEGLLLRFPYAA

`COc1ccc(C[C@@](C)(N)C(=O)O)cc1[At]` [(R)-^211At-AAMT-OMe, (R)-3-astato(^211At)—O-methyl-α-methyltyrosine]: the “decomposition by TLC” value in series [1] is listed as “no decomposition”.
Take `C[C@](N)(Cc1ccc(O)cc1)C(=O)O` [AMT, α-methyl tyrosine, reference compound]: the “inhibition of uptake of 211At-AAMT-OMe into HEK293-hLAT1 cells” value against HEK293-hLAT1 was “significantly inhibited”.
For `NC1(C(=O)O)CC2CCC1C2` (stereo not drawn) [BCH, 2-aminobicyclo[2,2,1]heptane-2-carboxylic acid, reference compound], on HEK293-hLAT1, the “inhibition of uptake of 211At-AAMT-OMe into HEK293-hLAT1 cells” value is recorded as “significantly inhibited”.
Turning to `[NH2][Pt]([NH2])([Cl])[Cl]` [CDDP, Cisplatin], the cell viability entry in series [2] was “still alive even at 100 μg/mL”.
As to `COc1cc(C[C@](C)(N)C(=O)O)ccc1[At]` [^211At-AAMPhe-OMe, (S)-α-methyl-4-astato(^211At)-3-methoxyphenylalanine], the “accumulation in the tumor sites compared to 211At-AAMT” value (shortened to “accumulation … compared to 211At-AAMT”) in the series on PANC1 tumor is recorded as “more highly accumulated in the tumor sites than ^211At-AAMT”. In series [3], the tissue uptake at 10 min stood at 3.77 %ID/g and the tissue uptake at 1 h is 6.38 %ID/g. The “decomposition by TLC” value in series [1] is “no decomposition”.
For `CCOc1ccc(C[C@](C)(N)C(=O)O)cc1[At]` [^211At-AAMT-OEt, (S)-3-astato(^211At)—O-ethyl-α-methyltyrosine], in series [4] (21 days), the apparent toxicity entry was “apparent toxicity induced by their administration was not observed” and the “lesions other than tumor at autopsy” value was “lesions other than tumor were not observed”. Besides, in series [4] (setting [5]), the mouse body weight result is recorded as “gently increased” and the “tumor growth inhibiting effect” value is “comparable to that of the ^211At-AAMT-OMe administration group”. In the series on PANC1 tumor, the “accumulation … compared to 211At-AAMT” value is reported as “more highly accumulated in the tumor sites than ^211At-AAMT” and the “retention at tumor sites” value is listed as “superior retention at tumor sites compared to ^211At-AAMT”. Besides, in series [3], the tissue uptake at 10 min is 4.21 %ID/g and the tissue uptake at 1 h came out at 3.59 %ID/g. Besides, in the series on PANC1, the “uptake level into cells (number of radioactivity counts/protein amount)” value is on record as “comparable or superior” and the uptake speed result is “comparable or superior”. For the same compound, the “decomposition by TLC” value in series [1] is “no decomposition”.
As for `CCCOc1ccc(C[C@](C)(N)C(=O)O)cc1[At]` [^211At-AAMT-OPr, (S)-3-astato(^211At)—O-propyl-α-methyltyrosine], in the series on PANC1 tumor, the “accumulation … compared to 211At-AAMT” value is on record as “more highly accumulated in the tumor sites than ^211At-AAMT” and the “retention at tumor sites” value is listed as “superior retention at tumor sites compared to ^211At-AAMT”. Besides, the “tumor accumulation, ranking” value in the series on PANC1 tumor (1 hour after administration) is reported as “most highly accumulated 1 hour after administration”. Also, in series [3], the tissue uptake at 10 min turned out to be 5.91 %ID/g and the tissue uptake at 1 h is 9.45 %ID/g. In the series on PANC1, the “uptake level into cells (number of radioactivity counts/protein amount)” value is reported as “comparable or superior” and the uptake speed result is reported as “comparable or superior”. In addition, in series [1], the “decomposition by TLC” value was “no decomposition”.
